Experiments:
HbS = HbS (Homo sapiens, UniProt P68871+P69905, E7V); settings: cited from earlier work
[1] = system: spinal dorsal horn neurons; settings: cited from earlier work; for nociception depending on age: various ages / the young
hemoglobin [2] = biological target: T1, hemoglobin (Homo sapiens, UniProt P68871+P69905); assay: association rates of gases for hemoglobin; format: binding
[3] = cited from earlier work
[4] = inhaled xenon; cited from earlier work
hemoglobin [5] = biological target: T1, hemoglobin; settings: cited from earlier work
[6] = with oxygen, human adults; cited from earlier work

C [methane]
effect on HbS aggregation (HbS): prevent and reverse HbS aggregation

CC [ethane]
effect on HbS aggregation (HbS): prevent and reverse HbS aggregation

[N-]=[N+]=O [nitrous oxide]
nociception depending on age [1]: ineffective in the young

[Xe] [xenon]
xenon association rate for hemoglobin relative to CO (hemoglobin [2]; versus CO): 10 times faster
xenon association rate for hemoglobin relative to O2 (hemoglobin [2]; versus O2): 1-2 times faster
analgesia to cold pain ([3]; human, in vivo): not to cold pain
analgesia to ischemic, electrical, mechanical, and heat stimulation ([3]; human, in vivo): produced analgesia
analgesic potency compared with nitrous oxide ([3]; human, in vivo): comparable or superior to nitrous oxide
response to experimentally induced, standardized forms of pain ([3]; inhaled dose of ~20%, healthy volunteers): significantly decrease the response
nociceptive responsiveness of spinal dorsal horn neurons ([1]; animal studies): directly inhibited
nociception depending on age [1]: reduce nociception at various ages
inhaled concentration at which nausea and vomiting has been observed [4]: > 30%
xenon in blood carried by hemoglobin (hemoglobin [5]; during xenon inhalation, estimated): 45%
amount of xenon bound by reduced and oxyhemoglobin (hemoglobin [5]; reduced versus oxyhemoglobin): approximately the same
1 MAC, inhaled fractional concentration [6]: 0.63-0.73

CCC [propane]
effect on HbS aggregation (HbS): prevent and reverse HbS aggregation

From patent US20100203156A1, “XENON AS A TREATMENT FOR HEMOGLOBINOPATHY” (priority 2009, published 2010)
